How the values were obtained:
[1] = Moore et al. 1976; cited from earlier work
[2] = In-vitro release of bupivacaine, USP Apparatus 2 Paddle Method, pH 3.0; format: physicochemical
Description: The in-vitro dissolution range described above may be determined by subjecting the local anesthetic formulation to in-vitro conditions specified by the USP II Paddle Method, 100 RPM, 37 degrees Celsius, pH 3.0 in 900 ml of 10 mM sodium phosphate buffer.
The in-vitro release of bupivacaine from the microcapsules of Examples 1 and 2 was examined. Dissolution was performed by using USP Apparatus 2 Paddle Method <711>at 100 rpm at 37° C. A 80 mg±3 mg of sample, irrespective of microcapsules formulation, was employed per vessel containing 900 mL of 10 mM Sodium Phosphate Buffer, pH 3.0. The samples (clear solution) were withdrawn at preset time intervals and analyzed for bupivacaine base by HPLC. The HPLC conditions are:
(§1) The in-vitro release of bupivacaine from the microspheres of Examples 2 (batches 1-4), 2A, 3, and 4 was examined. Dissolution was performed by using USP Apparatus 2 Paddle Method at 100 rpm at 37° C. A 80 mg±3 mg of sample, irrespective of microsphere formulation, was employed per vessel containing 900 mL of 10 mM Sodium Phosphate Buffer, pH 3.0. The samples (clear solution) were withdrawn at preset time intervals and analyzed for bupivacaine base by HPLC.
as §1, with “2B” for “2 (batches 1-4), 2A, 3, and 4”, “Method <711>” for “Method”, “HPLC. The following 24 hour dissolution release rates in Table 7B are preferred release rates which were based on batches made in accordance with the formulation of Example 2B (10 Kg scale batches).” for “HPLC.”

CCCCN1CCCCC1C(=O)Nc1c(C)cccc1C (stereo not drawn) [Bupivacaine base]
plasma bupivacaine level at which systemic toxic reactions are believed to occur [1]: 4000 ng/mL | In Vitro Release of Bupivacaine (Cumulative Release %) ([2]; 0.5 h): 96.5% | In Vitro Release of Bupivacaine (Cumulative Release %) ([2]; 1 h): 97.09% | In Vitro Release of Bupivacaine (Cumulative Release %) ([2]; 2 h): 97.035% | In Vitro Release of Bupivacaine (Cumulative Release %) ([2]; 3 h): 97.275% | In Vitro Release of Bupivacaine (Cumulative Release %) ([2]; 4 h): 97.665%
